These results are taken from patent publication US8883833B2, “Substituted benzoazole PDE4 inhibitors for treating inflammatory, cardiovascular and CNS disorders” (Decode Genetics EHF, priority 2007, dated 2014).

One assay relates to rats. The following applies: cited from earlier work.
The test system of a further assay is rat model. The settings on record: rat model in vivo; cited from earlier work.
Assay [1] deals with rat model of Huntington's disease. The following applies: cited from earlier work.
The subject of the next assay is primates. The following applies: cited from earlier work.
A further assay concerns human. The settings on record: human clinical trials; cited from earlier work.
The test system of the next assay is rodent models. The settings on record: multiple rodent models; cited from earlier work.
The test system of the next assay is mice. The settings on record: two separate studies in mice in vivo; cited from earlier work.
Another assay has as its target h4D7 (Homo sapiens, UniProt Q08499). In words: In-vitro assay for PDE4 enzymes, real-time enzyme-coupled spectrophotometric assay (Table 3). The format is biochemical. On the procedure:
(§1) In-vitro assay for PDE4 enzymes. The in-vitro activity of PDE4 enzymes and the in-vitro potency of therapeutic agents described in the present invention was measured using a real-time, enzyme-coupled spectrophotometric assay. By using three different coupling enzymes, the product of the PDE4 reaction is coupled to the oxidation of the reduced form β-nicotinamide adenine dinucleotide (NADH), which dissipation can be monitored spectrophotmetrically at […]. Assay description. Buffer A containing 50 mM Tris, pH 8.0, 16 mM MgCl2 and 80 mM KCl is prepared and stored at room temperature. Buffer B containing 50 mM Tris, pH 8.0 is prepared and stored at toom temperature. Stock solutions of the following reagents are prepared in Buffer B and stored at −20° C.: Adenosine-5′-triphosphate (ATP), cyclic adenosine-5′-monophosphate (cAMP), phosphoenolpyruvate (PEP) and NADH. An assay mix is prepared by mixing Buffer A, […] (TCEP), ATP, PEP, NADH, myokinase (MK), pyruvate kinase (PK), lactate dehydroganese (LDH) and PDE4 to a final volume of 20 mL, which is enough for a single 96-well assay plate. Assay mix (180 μL) and test article (10 μL) in 1:1 DMSO/H2O mixture is pre-incubated at room temperature for 10 min. The enzymatic reaction is initiated by addition of cAMP (10 μL). Final concentration of all components in the assay (200 μL/well) are as follows: 10 mM MgCl2, 50 mM KCl, 5 mM TCEP, 2.5% DMSO, 0.4 mM NADH, 1 mM PEP, 0.04 mM ATP, 5 units MK, 1 unit PK, 1 unit LDH and appropriate amount of PDE4. Reaction progress curves are monitored in a plate reader capable of measuring light absorbance at 340 nm. A decrease in light absorbance at 340 nm is due to oxidation of NADH. Positive controls containing no test article and negative controls containing no test article and no cAMP are included on every assay plate. Reaction rates are determined from the slopes of the linear portions of the progress curves. All data is percent normalized with respect to controls and presented as percent inhibition.

For another assay, the target named is h4B1 (Homo sapiens, UniProt Q07343). The assay is described as above. The format is biochemical. As for the experimental part: as §1
h4B1, sequence (Q07343 whole entry): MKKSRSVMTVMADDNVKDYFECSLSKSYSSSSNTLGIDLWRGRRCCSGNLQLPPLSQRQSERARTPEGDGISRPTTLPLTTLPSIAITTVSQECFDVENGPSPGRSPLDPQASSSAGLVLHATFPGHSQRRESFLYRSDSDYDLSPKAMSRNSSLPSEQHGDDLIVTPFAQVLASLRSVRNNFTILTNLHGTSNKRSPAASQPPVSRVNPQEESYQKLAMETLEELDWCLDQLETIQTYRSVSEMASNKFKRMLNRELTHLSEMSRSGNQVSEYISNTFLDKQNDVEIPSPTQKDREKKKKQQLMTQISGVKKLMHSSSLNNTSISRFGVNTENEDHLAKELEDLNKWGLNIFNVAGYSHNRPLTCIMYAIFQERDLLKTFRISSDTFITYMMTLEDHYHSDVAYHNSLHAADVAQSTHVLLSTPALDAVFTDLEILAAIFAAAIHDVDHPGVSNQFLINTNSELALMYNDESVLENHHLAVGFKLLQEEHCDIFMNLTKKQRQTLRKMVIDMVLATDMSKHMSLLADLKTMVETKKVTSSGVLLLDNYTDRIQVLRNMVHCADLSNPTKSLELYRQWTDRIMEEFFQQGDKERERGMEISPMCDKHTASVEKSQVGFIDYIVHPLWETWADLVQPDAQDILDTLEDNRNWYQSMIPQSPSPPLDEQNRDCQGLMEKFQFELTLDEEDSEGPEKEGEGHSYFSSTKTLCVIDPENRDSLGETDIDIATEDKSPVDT
For assay [2], the system named is patients suffering from asthma and COPD. The settings on record: cited from earlier work; for results of administration to patients: asthma and COPD patients, initial.

A value given as a limit tells only on which side of the number the result lay.

Broadly, the IC50 is the concentration at which inhibition is half-maximal.

h4D7, sequence (Q08499 1-748 isoform Q08499-11): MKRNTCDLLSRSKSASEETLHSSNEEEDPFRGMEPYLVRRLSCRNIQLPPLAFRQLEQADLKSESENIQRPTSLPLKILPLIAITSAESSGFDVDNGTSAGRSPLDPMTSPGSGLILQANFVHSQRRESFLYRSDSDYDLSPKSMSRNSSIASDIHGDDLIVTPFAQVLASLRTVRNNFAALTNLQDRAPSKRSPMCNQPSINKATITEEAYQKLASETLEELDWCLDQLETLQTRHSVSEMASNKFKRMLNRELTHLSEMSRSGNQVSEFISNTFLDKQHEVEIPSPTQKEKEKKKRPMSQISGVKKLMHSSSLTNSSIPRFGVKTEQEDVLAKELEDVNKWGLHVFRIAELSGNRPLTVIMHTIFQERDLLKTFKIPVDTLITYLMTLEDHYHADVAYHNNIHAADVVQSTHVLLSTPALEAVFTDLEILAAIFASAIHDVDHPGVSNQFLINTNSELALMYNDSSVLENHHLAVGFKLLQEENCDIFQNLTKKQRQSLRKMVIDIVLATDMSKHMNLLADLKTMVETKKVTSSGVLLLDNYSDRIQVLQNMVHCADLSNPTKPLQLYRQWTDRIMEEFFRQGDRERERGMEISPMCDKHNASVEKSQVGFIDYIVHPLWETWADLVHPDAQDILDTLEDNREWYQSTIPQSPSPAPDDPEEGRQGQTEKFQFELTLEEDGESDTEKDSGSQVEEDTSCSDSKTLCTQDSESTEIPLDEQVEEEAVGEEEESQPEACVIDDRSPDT

Take `CCc1ccc2c(-c3cccc(Cl)c3)nc(=O)n(CC)c2n1` [YM976]: in the assay on rats, the “effects of experimentally-induced interstitial cystitis” value is given as “ameliorate the effects”, the frequency of urination entry was “decrease” and the “volume of urine at each time of urination” value is “increase”.
On to `Cc1noc(/C(=C/c2cccc(-c3cc(C(C)(C)S(C)(=O)=O)cc4cccnc34)c2)c2ccc(S(C)(=O)=O)cc2)n1` [L-454,560], for which the learning entry in the assay with rat model was “improve learning”.
With `COc1ccc(C2CNC(=O)C2)cc1OC1CCCC1` (stereo not shown) [Rolipram], the neuroprotection entry in assay [1] is recorded as “neuroprotective effect”. Further, the cognition entry in the assay on primates and with rodent models was “enhance cognition” each time. In addition, in the assay on human, the depression entry is reported as “ameliorate depression”. For the same compound, in the assay with mice, the “outcome in schizophrenia models” value is given as “improves the outcome”.
Regarding `Nc1nc2c(-c3ccc4c(c3)OCO4)cc(Cn3cccn3)cc2s1` [Example 9, 4-Benzo[1,3]dioxol-5-yl-6-pyrazol-1-ylmethyl-benzothiazol-2-ylamine], the IC50 on h4D7 and against h4B1 was 1000 to 10000 nM in each case.
On to `NC(=O)N1CCN(Cc2cc3scnc3c(-c3cccc(Cl)c3)c2F)CC1` [Example 31, 4-[4-(3-Chloro-phenyl)-5-fluoro-benzothiazol-6-ylmethyl]-piperazine-1-carboxylic acid amide], for which the IC50 against h4D7 and at h4B1 was under 1000 nM throughout.
As to `COc1ccc([C@]2(C#N)CC[C@@H](C(=O)O)CC2)cc1OC1CCCC1` [cilomilast], the “results of administration to patients” value in assay [2] is “initially excellent results”. Moreover, the “effect on long-term trial” value in [2] (long-term trial) is on record as “disappeared”.
Consider `Nc1nc2c(-c3cccc([N+](=O)[O-])c3)cc(Cc3ccc(F)cc3)cc2s1` [Example 1, 6-(4-fluorobenzyl)-4-(3-nitrophenyl)-benzothiazol-2-yl amine], for which the IC50 at h4D7 was under 1000 nM; at h4B1, 1000 to 10000 nM.
For `Nc1nc2c(-c3cccc([N+](=O)[O-])c3)cc(Cn3ccnc3)cc2s1` [Example 2, 6-imidazol-1-ylmethyl-4-(3-nitro-phenyl)-benzothiazol-2-ylamine] the same measures were under 1000 nM and under 1000 nM.
As to `Oc1cccc(Cc2cc3scnc3c(-c3cccc(Cl)c3)c2F)c1` [Example 39, 3-[4-(3-chloro-phenyl)-5-fluoro-benzothiazol-6-ylmethyl]-phenol], the IC50 was under 1000 nM on h4D7 and 1000 to 10000 nM on h4B1.
As for `CS(=O)(=O)Nc1ccc(Cc2cc(-c3cccc(Cl)c3)c3nc(N)sc3c2)cc1` [Example 18, N-{4-[2-Amino-4-(3-chloro-phenyl)-benzothiazol-6-ylmethyl]-phenyl}-methanesulfonamide], the values for the IC50 against h4D7 and on h4B1 were under 1000 nM and 1000 to 10000 nM, respectively.
The like results for `NC(=O)Nc1ccc(Cc2cc3sc(N)nc3c(-c3cccc(Cl)c3)c2F)cc1` [Example 21, {4-[2-amino-4-(3-chloro-phenyl)-5-fluoro-benzothiazol-6-ylmethyl]-phenyl}-urea] were, in that order, under 1000 nM and under 1000 nM.
As for `CSc1cccc(-c2cc(Cn3cccn3)cc3sc(N)nc23)c1` [Example 14, 4-(3-Methylsulfanyl-phenyl)-6-pyrazol-1-ylmethyl-benzothiazol-2-ylamine], the IC50 was under 1000 nM at h4D7 and 1000 to 10000 nM against h4B1.
The like results for `CCNC(=O)Nc1ccc(Cc2cc3scnc3c(-c3cccc(Cl)c3)c2F)cc1` [Example 30, 1-{4-[4-(3-chloro-phenyl)-5-fluoro-benzothiazol-6-ylmethyl]-phenyl}-3-ethyl-urea] were, in that order, under 1000 nM and under 1000 nM.
In the case of `Cc1nc2c(-c3cccc(Cl)c3)cc(Cc3ccc(N)cc3)cc2o1` [Example 22, 4-{[4-(3-chlorophenyl)-2-methyl-1,3-benzoxazol-6-yl]methyl}aniline], the IC50 against h4D7 and at h4B1 was under 1000 nM in each case.
Take `Nc1nc2c(-c3ccc4c(c3)OCO4)nc(Cc3ccc(F)cc3)nc2s1` [Example 11, 7-Benzo[1,3]dioxol-5-yl-5-(4-fluorobenzyl)-thiazolo[5,4-d]pyrimidin-2-ylamine]: the IC50 was under 1000 nM against h4D7 and 1000 to 10000 nM on h4B1.
Take `Cn1nccc1Cc1cc(-c2ccc3c(c2)OCO3)c2nc(N)sc2c1` [Example 8, 4-Benzo[1,3]dioxol-5-yl-6-(2-methyl-2H-pyrazol-3-ylmethyl)-benzothiazol-2-ylamine]: the IC50 is under 1000 nM against h4D7 and 1000 to 10000 nM against h4B1.
`CS(=O)(=O)Nc1ccc(Cc2cc3sc(N)nc3c(-c3cccc(Cl)c3)c2F)cc1` [Example 19, N-{4-[2-amino-4-(3-chloro-phenyl)-5-fluoro-benzothiazol-6-ylmethyl]-phenyl}-methanesulfonamide]: the IC50 on h4D7 and at h4B1 was 1000 to 10000 nM throughout.
Consider `Nc1ccc(Cc2cc(-c3cccc(Cl)c3)c3nc(N)sc3c2)cc1` [Example 26, 6-(4-Amino-benzyl)-4-(3-chloro-phenyl)-benzothiazol-2-ylamine], for which the IC50 at h4D7 and against h4B1 was under 1000 nM each time.
On to `CCOC(=O)NC1CCN(Cc2cc3scnc3c(-c3cccc(Cl)c3)c2F)CC1` [Example 45, {1-[4-(3-Chloro-phenyl)-5-fluoro-benzothiazol-6-ylmethyl]-piperidin-4-yl}-carbamic acid ethyl ester], for which the IC50 at h4D7 is under 1000 nM; against h4B1, 1000 to 10000 nM.
Take `Nc1ccc(Cc2cc3scnc3c(-c3cccc(Cl)c3)c2F)cc1` [Example 23, 4-[4-(3-chloro-phenyl)-5-fluoro-benzothiazol-6-ylmethyl]-phenylamine]: the half-maximal inhibitory concentration (IC50) against h4D7 and at h4B1 was under 1000 nM each time.
For `Nc1ccc(Cc2cc(-c3cccc(Cl)c3)c3ncsc3c2)cc1` [Example 25, 4-[4-(3-Chloro-phenyl)-benzothiazol-6-ylmethyl]-phenylamine], the IC50 on h4D7 and on h4B1 was under 1000 nM in each case.
As for `O=C(Nc1c(Cl)cncc1Cl)c1ccc(OC(F)F)c(OCC2CC2)c1` [roflumilast], the “results of administration to patients” value in assay [2] is “initially excellent results”.
